Measured values as given in patent US20260232821A1, “ALBUMIN CONJUGATE, METHOD FOR PRODUCING SAME, AND COMPOSITION FOR TARGETING, DIAGNOSING, OR TREATING CANCER COMPRISING SAME” (KYTECBIO CO., LTD., priority 2023, published 2026).

Experiments:
albumin (HSA) = albumin (HSA) (Homo sapiens, UniProt P02768); experiment: Binding ability evaluation: dissociation constant from fluorescence change with increasing albumin; settings: 100 nM boron-containing compound, 95 vol % PBS buffer and 5 vol % DMSO, stirred 2 hours, fluorescence at 530 nm
Sequence of albumin (HSA) (P02768 25-609): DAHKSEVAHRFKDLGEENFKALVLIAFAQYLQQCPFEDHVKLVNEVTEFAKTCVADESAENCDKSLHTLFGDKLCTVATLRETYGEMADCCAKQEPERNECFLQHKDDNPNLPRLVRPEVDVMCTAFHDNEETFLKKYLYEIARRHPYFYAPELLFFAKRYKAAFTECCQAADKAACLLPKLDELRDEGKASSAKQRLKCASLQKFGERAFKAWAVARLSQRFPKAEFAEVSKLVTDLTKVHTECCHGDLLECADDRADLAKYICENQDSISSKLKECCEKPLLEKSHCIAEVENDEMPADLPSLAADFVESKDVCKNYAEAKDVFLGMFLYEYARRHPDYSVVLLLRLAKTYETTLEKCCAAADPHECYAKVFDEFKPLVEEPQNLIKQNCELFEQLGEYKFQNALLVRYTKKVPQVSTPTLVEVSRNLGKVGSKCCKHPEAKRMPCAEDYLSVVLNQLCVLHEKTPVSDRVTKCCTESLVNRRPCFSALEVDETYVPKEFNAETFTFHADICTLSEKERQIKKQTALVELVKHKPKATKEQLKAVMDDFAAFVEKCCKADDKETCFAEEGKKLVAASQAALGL
Method: 100 nM boron-containing compound B1 and albumin (HSA) were mixed in 95 vol % PBS buffer and 5 vol % dimethyl sulfoxide (DMSO) and stirred for 2 hours. The change in fluorescence intensity (F.I.) was measured while increasing the concentration of the albumin, and the dissociation constant (Kd) calculated based thereon is shown in FIG. 2.
For example, 0:1 represents the case where 100 nM albumin (HSA) was used without using a boron-containing compound, 1:0 represents the case where 100 nM boron-containing compound B1 was used and no albumin (HSA) was used, 1:2 represents the case where 100 nM boron-containing compound B1 and 200 nM albumin (HSA) were used, and 1:16 represents the case where 100 nM boron-containing compound B1 and 1600 nM albumin (HSA) were used.
The dissociation constants (Kd) of boron-containing compounds B2 to B5 were calculated in the same method as used to produce boron-containing compound B1.

[1] = Evaluation of ROS production according to lysine concentration; settings: 10 μM compound with about 1.0 mM monomeric lysine, PBS pH 7.4, light of about 530 nm
Method: • i) 1.0 mM lysine (hereinafter, Lys) was mixed in PBS buffer solution (pH 7.4) and irradiated with light of about 530 nm. The fluorescence generated over time was measured using a Scinco FS-2, and results thereof are shown in FIG. 7A. • ii) The result of mixing 10 μM boron-containing compound B3 instead of the 1.0 mM lysine (Lys) is shown in FIG. 7B, iii) the result of mixing 10 μM boron-containing compound B3 and 0.1 mM lysine (Lys) instead of the 1.0 mM lysine (Lys) is shown in FIG. 7C, and iv) the result of mixing 10 μM boron-containing compound B3 and 1.0 mM lysine (Lys) instead of the 1.0 mM lysine (Lys) is shown in FIG. 7D.

| SMILES | Kd (albumin (HSA)) [nM] | reactive oxygen species generated when mixed with lysine [1] |
| --- | --- | --- |
| O=Cc1cc2c(cc1NCc1ccccc1B(O)O)OCO2 [B5] | 571 |  |
| O=Cc1cc(Br)ccc1NCc1ccccc1B(O)O [B2] | 383 |  |
| O=Cc1ccccc1NCc1ccccc1B(O)O [B1] | 185 |  |
| O=C(c1ccccc1)c1ccccc1NCc1ccccc1B(O)O [B4] | 2220 |  |
| O=Cc1cc2ccccc2cc1NCc1ccccc1B(O)O [B3] | 2480 | relatively large amount of reactive oxygen species is generated |
